The values that follow come from patent US8420675B2, “Aminotetrahydroindazoloacetic acids” (Hoffmann-La Roche Inc., priority 2008, dated 2013).

Molecules are shown by their SMILES.

The target of the test is T1, human CRTH2 (Homo sapiens, UniProt Q9Y5Y4).
T1 construct: expressed in transfected cells
T1 sequence (Q9Y5Y4 1-395): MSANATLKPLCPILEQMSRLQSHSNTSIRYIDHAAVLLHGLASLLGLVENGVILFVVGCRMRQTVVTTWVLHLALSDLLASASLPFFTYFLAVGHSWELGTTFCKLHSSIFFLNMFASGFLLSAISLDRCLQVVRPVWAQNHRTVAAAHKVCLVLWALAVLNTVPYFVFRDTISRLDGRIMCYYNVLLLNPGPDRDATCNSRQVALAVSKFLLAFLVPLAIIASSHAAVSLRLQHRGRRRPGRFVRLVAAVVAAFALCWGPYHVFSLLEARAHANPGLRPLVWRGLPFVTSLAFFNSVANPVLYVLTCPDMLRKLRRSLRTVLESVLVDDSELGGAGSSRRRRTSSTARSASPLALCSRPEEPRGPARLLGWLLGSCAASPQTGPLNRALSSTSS
The test can be described thus: Human CRTH2 Receptor Binding Assay (whole cell, [3H]ramatroban competition). Conditions: CHO-K1 cells expressing human CRTH2 and G-alpha16; 20 nM [3H]ramatroban; 1 hour, room temperature. In outline:
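CHO-K1 cells stably co-expressing human CRTH2 and G-alpha16, 1.5×10^5 per reaction, incubated 1 hour at room temperature with 20 nM [3H]ramatroban in PBS containing 10 mM MgCl2 and 0.06% BSA. Non-specific binding defined with 10 μM 15(R)-15-methyl PGD2. IC50 from 7 concentrations by 4-parameter logistic fit of specific binding inhibition.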

Turning to `O=C(O)CCn1ncc2c1CCC[C@H]2NS(=O)(=O)c1cnc(Oc2ccccc2Cl)c(Br)c1` [Example 2-11a, 3-{(R)-4-[5-Bromo-6-(2-chloro-phenoxy)-pyridine-3-sulfonylamino]-4,5,6,7-tetrahydro-indazol-1-yl}-propionic acid], the IC50 was 18.2 nM.

The molecule `CN([C@@H]1CCCc2c1cnn2CC(=O)O)S(=O)(=O)c1cnc(Oc2ccc(F)cc2)c(Br)c1` [Example 6-12a, ((R)-4-{[5-Bromo-6-(4-fluoro-phenoxy)-pyridine-3-sulfonyl]-methyl-amino}-4,5,6,7-tetrahydro-indazol-1-yl)-acetic acid] showed an IC50 of 8.4 nM.

The molecule `O=C(O)Cn1ncc2c1CCC[C@H]2NS(=O)(=O)c1ccc(-c2ccccc2)cc1` [Example 1-2a, [(R)-4-(Biphenyl-4-sulfonylamino)-4,5,6,7-tetrahydro-indazol-1-yl]-acetic acid] gave an IC50 of 93.6 nM.

The molecule `CN([C@@H]1CCCc2c1cnn2CC(=O)O)S(=O)(=O)c1cnc(Oc2ccc(Cl)cc2)c(C2(C)CC2)c1` [Example 8-1a, ((R)-4-{[6-(4-Chloro-phenoxy)-5-(1-methyl-cyclopropyl)-pyridine-3-sulfonyl]-methyl-amino}-4,5,6,7-tetrahydro-indazol-1-yl)-acetic acid] displayed an IC50 of 14.5 nM.

Regarding `CN([C@@H]1CCCc2c1cnn2CC(=O)O)S(=O)(=O)c1ccc(Oc2ccc(Cl)cc2F)c(Cl)c1` [Example 9-11a, ((R)-4-{[3-Chloro-4-(4-chloro-2-fluoro-phenoxy)-benzenesulfonyl]-methyl-amino}-4,5,6,7-tetrahydro-indazol-1-yl)-acetic acid], the IC50 came to 7.2 nM.

Molecule `CN([C@@H]1CCCc2c1cnn2CCC(=O)O)S(=O)(=O)c1cc(C(F)(F)F)cc(S(=O)(=O)c2ccc(F)cc2)c1` [Example 13-3a, 3-((R)-4-{[3-(4-Fluoro-benzenesulfonyl)-5-trifluoromethyl-benzenesulfonyl]-methyl-amino}-4,5,6,7-tetrahydro-indazol-1-yl)-propionic acid] gave an IC50 of 4 nM.

Take `CS(=O)(=O)c1ccc(Oc2ncc(S(=O)(=O)NC3CCCc4c3cnn4CC(=O)O)cc2Br)cc1` (stereo not shown) [Example 2-5a, {4-[5-Bromo-6-(4-methanesulfonyl-phenoxy)-pyridine-3-sulfonylamino]-4,5,6,7-tetrahydro-indazol-1-yl}-acetic acid]: the half-inhibitory concentration (IC50) was determined as 101 nM.

For the molecule `Cc1ccc(S(=O)(=O)c2cc(C(F)(F)F)cc(S(=O)(=O)N(C)[C@@H]3CCCc4c3cnn4CC(=O)O)c2)cc1` [Example 13-2a, ((R)-4-{Methyl-[3-(toluene-4-sulfonyl)-5-trifluoromethyl-benzenesulfonyl]-amino}-4,5,6,7-tetrahydro-indazol-1-yl)-acetic acid], the IC50 is 2.7 nM.

In the case of `CN([C@@H]1CCCc2c1cnn2CC(=O)O)S(=O)(=O)c1cnc(Oc2cc(Cl)ccc2Cl)c(Br)c1` [Example 6-5a, ((R)-4-{[5-Bromo-6-(2,5-dichloro-phenoxy)-pyridine-3-sulfonyl]-methyl-amino}-4,5,6,7-tetrahydro-indazol-1-yl)-acetic acid], the IC50 was 4.9 nM.

Molecule `O=C(O)Cn1ncc2c1CCC[C@H]2NS(=O)(=O)c1cnc(Oc2ccc(Cl)cc2)c(Br)c1` [Example 2-8a, {(R)-4-[5-Bromo-6-(4-chloro-phenoxy)-pyridine-3-sulfonylamino]-4,5,6,7-tetrahydro-indazol-1-yl}-acetic acid] gave an IC50 of 7.8 nM.

`CN([C@@H]1CCCc2c1cnn2CC(=O)O)S(=O)(=O)c1ccc(Oc2ccc(Cl)c(F)c2)c(Cl)c1` [Example 9-21a, ((R)-4-{[3-Chloro-4-(4-chloro-3-fluoro-phenoxy)-benzenesulfonyl]-methyl-amino}-4,5,6,7-tetrahydro-indazol-1-yl)-acetic acid] yielded an IC50 of 13.2 nM.

In turn, `CCOc1ccc(-c2ccc(S(=O)(=O)NC3CCCc4c3cnn4CC(=O)O)cc2)cc1` (stereo not shown) [Example 10-3a, [4-(4′-Ethoxy-biphenyl-4-sulfonylamino)-4,5,6,7-tetrahydro-indazol-1-yl]-acetic acid] returned an IC50 of 194 nM.

The molecule `CN([C@@H]1CCCc2c1cnn2CC(=O)O)S(=O)(=O)c1ccc(Oc2ccc(Br)cc2)c(Cl)c1` [Example 9-23a, ((R)-4-{[4-(4-Bromo-phenoxy)-3-chloro-benzenesulfonyl]-methyl-amino}-4,5,6,7-tetrahydro-indazol-1-yl)-acetic acid] showed a 50% inhibitory concentration (IC50) of 6.7 nM.

Regarding `CN([C@@H]1CCCc2c1cnn2CCC(=O)O)S(=O)(=O)c1cc(C(F)(F)F)cc(S(=O)(=O)c2ccc(Cl)cc2)c1` [Example 13-4a, 3-((R)-4-{[3-(4-Chloro-benzenesulfonyl)-5-trifluoromethyl-benzenesulfonyl]-methyl-amino}-4,5,6,7-tetrahydro-indazol-1-yl)-propionic acid], the IC50 came to 2.5 nM.

In turn, `CN([C@@H]1CCCc2c1cnn2CC(=O)O)S(=O)(=O)c1ccc(Oc2c(F)cccc2F)c(Cl)c1` [Example 9-33a, ((R)-4-{[3-Chloro-4-(2,6-difluoro-phenoxy)-benzenesulfonyl]-methyl-amino}-4,5,6,7-tetrahydro-indazol-1-yl)-acetic acid] showed an IC50 of 10.6 nM.

Molecule `CN([C@@H]1CCCc2c1cnn2CC(=O)O)S(=O)(=O)c1ccc(Oc2ccc(S(C)(=O)=O)cc2)c(Cl)c1` [Example 9-25a, ((R)-4-{[3-Chloro-4-(4-methanesulfonyl-phenoxy)-benzenesulfonyl]-methyl-amino}-4,5,6,7-tetrahydro-indazol-1-yl)-acetic acid] came in with an IC50 of 20.9 nM.

Consider `CN([C@@H]1CCCc2c1cnn2CC(=O)O)S(=O)(=O)c1ccc(Oc2ccc(F)cc2)c(Cl)c1` [Example 9-14a, ((R)-4-{[3-Chloro-4-(4-fluoro-phenoxy)-benzenesulfonyl]-methyl-amino}-4,5,6,7-tetrahydro-indazol-1-yl)-acetic acid], for which the IC50 was 4.4 nM.

In turn, `CN([C@@H]1CCCc2c1cnn2CC(=O)O)S(=O)(=O)c1cnc(Oc2ccccc2Cl)c(Br)c1` [Example 6-2a, ((R)-4-{[5-Bromo-6-(2-chloro-phenoxy)-pyridine-3-sulfonyl]-methyl-amino}-4,5,6,7-tetrahydro-indazol-1-yl)-acetic acid] gave an IC50 of 6.6 nM.

Take `O=C(O)Cn1ncc2c1CCCC2NS(=O)(=O)c1ccc(-c2cccc(OC(F)(F)F)c2)cc1` (stereo not shown) [Example 10-14a, [4-(3′-Trifluoromethoxy-biphenyl-4-sulfonylamino)-4,5,6,7-tetrahydro-indazol-1-yl]-acetic acid]: the IC50 turned out to be 58.1 nM.

With `CCOc1cccc(-c2ccc(S(=O)(=O)NC3CCCc4c3cnn4CC(=O)O)cc2)c1` (stereo not shown) [Example 10-20a, [4-(3′-Ethoxy-biphenyl-4-sulfonylamino)-4,5,6,7-tetrahydro-indazol-1-yl]-acetic acid], the concentration for half-maximal inhibition (IC50) amounted to 272 nM.

As for `O=C(O)CCn1ncc2c1CCC[C@H]2NS(=O)(=O)c1ccc(Oc2ccccc2Cl)c(Cl)c1` [Example 5-7a, 3-{(R)-4-[3-Chloro-4-(2-chloro-phenoxy)-benzenesulfonylamino]-4,5,6,7-tetrahydro-indazol-1-yl}-propionic acid], the IC50 is 53 nM.

For the molecule `C[Si](C)(C)c1cccc(-c2ccc(S(=O)(=O)N[C@@H]3CCCc4c3cnn4CC(=O)O)cc2)c1` [Example 10-26a, [(R)-4-(3′-Trimethylsilanyl-biphenyl-4-sulfonylamino)-4,5,6,7-tetrahydro-indazol-1-yl]-acetic acid], the IC50 was 2.1 nM.

As to `Cc1cc(C)cc(-c2ccc(S(=O)(=O)NC3CCCc4c3cnn4CC(=O)O)cc2)c1` (stereo not shown) [Example 10-18a, [4-(3′,5′-Dimethyl-biphenyl-4-sulfonylamino)-4,5,6,7-tetrahydro-indazol-1-yl]-acetic acid], the IC50 amounted to 188 nM.

For `CC(C)c1cc(S(=O)(=O)N(C)[C@@H]2CCCc3c2cnn3CC(=O)O)cnc1Oc1ccc(Cl)cc1` [Example 7-1a, ((R)-4-{[6-(4-Chloro-phenoxy)-5-isopropyl-pyridine-3-sulfonyl]-methyl-amino}-4,5,6,7-tetrahydro-indazol-1-yl)-acetic acid], the IC50 is 12.1 nM.

With `O=C(O)Cn1ncc2c1CCCC2NS(=O)(=O)c1ccc(Oc2cccc(Cl)c2)cc1` (stereo not shown) [Example 5-2a, {4-[4-(3-Chloro-phenoxy)-benzenesulfonylamino]-4,5,6,7-tetrahydro-indazol-1-yl}-acetic acid], the IC50 worked out at 202 nM.

In turn, `O=C(O)Cn1ncc2c1CCCC2NS(=O)(=O)c1cnc(Oc2ccc(F)cc2)c(Br)c1` (stereo not shown) [Example 2-2a, {4-[5-Bromo-6-(4-fluoro-phenoxy)-pyridine-3-sulfonylamino]-4,5,6,7-tetrahydro-indazol-1-yl}-acetic acid] registered a half-inhibitory concentration (IC50) of 31.1 nM.

With `CN([C@@H]1CCCc2c1cnn2CC(=O)O)S(=O)(=O)c1cnc(Oc2ccc(C#N)cc2)c(Br)c1` [Example 6-14a, ((R)-4-{[5-Bromo-6-(4-cyano-phenoxy)-pyridine-3-sulfonyl]-methyl-amino}-4,5,6,7-tetrahydro-indazol-1-yl)-acetic acid], the IC50 is 8.2 nM.

As for `CN([C@@H]1CCCc2c1cnn2CC(=O)O)S(=O)(=O)c1cnc(Oc2ccc(Cl)cc2)c(Br)c1` [Example 6-1a, ((R)-4-{[5-Bromo-6-(4-chloro-phenoxy)-pyridine-3-sulfonyl]-methyl-amino}-4,5,6,7-tetrahydro-indazol-1-yl)-acetic acid], the IC50 was determined as 4 nM.
